“And” between values parts separate entries of the source, which are not always exact repeats. Equal values may be shown once. Read-outs that look alike come from different tables or passages of the source.
Experiments:
human MDM = settings: for prodrug measurements (uptake) / prodrug measurements (retention): 10 uM; for prodrug measurements (uptake): replicates; for prodrug measurements (retention): MDM
Protocol: Human MDMs were used for in vitro formulation assessments. MDM formulation uptake and retention studies were performed in flat-bottom, 12-well plates at a density of 1.2 × 10^6 cells/well, with each treatment completed in triplicate. […] At 2, 4, and 8 h after treatment, the cells were collected, processed, and analyzed for drug content by UPLC-UV/vis as previously described[12],[13],[56],[63]. […] Then, a culture medium (without drug) was added, and a half-media volume was replaced every other day. MDMs were collected at days 1, 5, 10, 15, and 30 after treatment, and then analyzed for intracellular drug content by UPC-UV/vis. […] MDMs were then collected immediately after the 8 h treatment and analyzed by an FEI Tecnai G2 Spirit transmission electron microscope as previously described[11],[12],[14].
Intracellular TFV-DP was extracted from human MDM or rat PBMCs as follows. […] At 2, 4, and 8 h after treatment, MDM was washed with PBS to remove the excess free drug. The cells were then collected in 70% MS-grade MeOH. TFV-DP from MDM was extracted as follows. Sep-Pak QMA cartridges (360 mg, 37–55 μm; Waters, Milford, MA) were used to separate TFV-DP from TFV- and mono-phosphate counterparts. The QMA cartridges were conditioned with 10 ml of 500 mM KCl, followed by 10 ml of 5 mM KCl. The sample (200 μL) was loaded onto the cartridges and washed with 12 ml of 75 mM KCl. The triphosphate (TP) fraction was eluted with 3 ml of 500 mM KCl. The pH of the TP fraction was lowered to 4.25 by adding 45 μl ammonium acetate buffer (pH 4, 10 mM) per ml eluate, and dephosphorylated by adding one unit of type XA sweet potato acid phosphatase (Sigma-Aldrich) per ml eluate (3 μL per sample) and incubating at 37 °C for 45 min. […] Samples were then loaded onto Waters OASIS HLB cartridges (60 mg, 30 μm; Waters, Milford, MA) pre-conditioned with 3 ml 100% methanol followed by 3 ml 1% TFA to remove salts. Salts were removed from the dephosphorylated samples with 3.5 ml of 1% TFA in water, then eluted with 1.5 ml 100% methanol and evaporated under vacuum. Once dry, the residue was stored at −80 °C until UPLC–MS/MS analyses. Samples were reconstituted in 100 μL of 10% MeOH, 90% 7.5 mM ammonium bicarbonate pH 7 in LC-MS grade water.
TFV-DP: Parent TFV was generated from TFV-DP during sample preparation and then subjected to UPLC-MS/MS analyses. The UPLC-MS/MS system was comprised of a Waters ACQUITY UPLC system coupled to a Waters Xevo TQ-XS triple quadrupole mass spectrometer (Waters, Milford, MA) with electrospray ionization (ESI) source. A CSH C18 analytical column (2.1 × 100 mm, 1.7 µm) equipped with a guard column (Waters, Milford, MA) at 30 °C was used for analyte separation. Samples were maintained at 4 °C during analysis. […] Mobile phase A consisted of 7.5 mM ammonium bicarbonate in water (MS grade, Fisher) with pH adjusted to 7.0 with glacial acetic acid (ACS grade, Sigma). Mobile phase B was 100% methanol (MS grade, Fisher). The flow rate was 0.22 mL/min. […] B was then held at 90% for 0.4 min before returning to initial conditions. Spectra were analyzed and quantified by MassLynx software version 4.1. Quantitation was based upon drug peak area to internal standard peak area ratios.

HIV-1ADA = assay: Long-term antiretroviral efficacy in MDM after single 8 h treatment (HIV-1 RT activity, p24); type: cell-based; settings: for HIV-1 RT activity: MDM, 10 µM (Figure 4D)
Protocol: To determine long-term antiretroviral efficacy following a single treatment, MDMs were plated in flat-bottom 12-well plates at a density of 1.2 × 10^6 cells/well. […] After treatment, the cells were washed twice with PBS and cultured in a fresh culture medium without drug with half-media replacement every other day. On days 1, 5, 10, 15, 20, 25, and 30 following treatment, the cells were infected with HIV-1ADA (a macrophage-tropic viral strain) at a multiplicity of infection of 0.1 infectious particles/cell for 8 h. MDM were cultured, and media samples collected on day 10 for the measurement of HIV reverse transcriptase (RT) activity as previously described[64],[65]. Cells were fixed in 2% PFA at each time point, and expression of the HIV-1p24 antigen was determined by immunocytochemistry. […] After 4 h of viral challenge, the cells were washed with PBS and given fresh media that contained the same concentrations of drug (0.00005–5,000 nM). Cell supernatants were collected 10 days later and assayed for HIV-1 RT activity as described above. Replicate studies were performed in CEM-ss CD4+ T-cell cultures. Specifically, cells were plated in 96-well plates, centrifuged at 650 × g for 5 min, and resuspended in (0.1–1,000 nM) drug-containing media for 1 h. The subsequent challenge with HIV-1NL4–3-eGFP, cell culture, sample collection, and determination of HIV-1 RT activity were performed as previously reported[13],[15].

[1] = Prodrug chemical stability of dissociated nanoformulations in pH 2.0-10.3 buffers; type: physicochemical; settings: buffers pH 2.0-10.3, 24 h
Protocol: The mixtures were centrifuged at 16,000 × g for 10 min. The supernatants were aspirated and stored at −80 °C until ultraperformance liquid chromatography tandem mass spectrometry (UPLC-MS/MS) analysis.

[2] = test system: human monocyte-derived macrophages (MDM); assay: MTT cell viability / mitochondrial activity assay in MDM; settings: for Cell viability by MTT, normalized to untreated control cells: replicates
Protocol: Human monocytes were obtained, cultured, and differentiated into MDM as previously described[11],[12],[34],[62]. The cell viability after treatment with nanoparticles was evaluated using the MTT assay. […] The cells were then washed with PBS after which 100 μL of MTT solution was added to each well (5 mg/mL) for 45 min at 37 °C. The MTT solution was then replaced with 200 μL/well of DMSO. A Molecular Devices SpectraMax M3 plate reader with SoftMax Pro 6.2 software (Sunnyvale, CA) was used to record absorbance at a wavelength of 490 nm.

Structure (SMILES): CC(C)OC(=O)[C@H](C)N[P@](=O)(CO[C@H](C)Cn1cnc2c(N)ncnc21)Oc1ccccc1 [TAF, tenofovir alafenamide]
- time by which no drug was detectable in MDM (human MDM; 10 μM): ≤ 24 h
- prodrug measurements (uptake) (human MDM; 2 hours): 2.762 and 0.9713 and 2.037
- prodrug measurements (uptake) (human MDM; 4 hours): 0.3098
- Intracellular prodrug concentration (human MDM; 10 μM, 8 h): 0.38 μg/10^6 cells
- prodrug measurements (uptake) (human MDM; 8 hours): 0.3813
- prodrug measurements (retention) (human MDM; day 1, replicates): 0
- prodrug measurements (retention) (human MDM; day 5, replicates): 0
- prodrug measurements (retention) (human MDM; day 10, replicates): 0
- prodrug measurements (retention) (human MDM; day 15, replicates): 0
- prodrug measurements (retention) (human MDM; day 30, replicates): 0
- viral breakthrough (HIV-1ADA; 10 μM, day 30): complete viral breakthrough
- inhibition at 10 µM (HIV-1ADA; Human immunodeficiency virus 1, 240 h, read-out: viral inhibition): 84.5%
- HIV-1 RT activity (HIV-1ADA; challenge day 1, replicates): 1.694 % of postive control and 1.963 % of postive control and 1.344 % of postive control and 1.665 % of postive control and 1.247 % of postive control and 0.8808 % of postive control
- HIV-1 RT activity (HIV-1ADA; challenge day 5, replicates): 1.516 % of postive control and 1.942 % of postive control and 1.963 % of postive control and 1.828 % of postive control and 2.306 % of postive control and 0.4466 % of postive control
- HIV-1 RT activity (HIV-1ADA; challenge day 10, replicates): 13.8971 % of postive control and 15.2412 % of postive control and 16.845 % of postive control and 11.6649 % of postive control and 19.6336 % of postive control and 17.0654 % of postive control
- HIV-1 RT activity (HIV-1ADA; challenge day 15, replicates): 10.4755 % of postive control and 3.747 % of postive control and 7.537 % of postive control and 13.2434 % of postive control and 32.8105 % of postive control
- HIV-1 RT activity (HIV-1ADA; challenge day 30, replicates): 86.3496 % of postive control and 48.9086 % of postive control and 79.0354 % of postive control and 54.8629 % of postive control
- hydrolytic stability across pH [1]: hydrolytically unstable at basic pH
- toxicity to cells ([2]; 100 μM): highly toxic to cells
- concentration above which a decrease in cell viability was observed ([2]; 8 h): above 12.5 μM
- Cell viability by MTT, normalized to untreated control cells ([2]; 8 h, 1.5625 uM): 0.7334 and 0.7343 and 0.7491
- Cell viability by MTT, normalized to untreated control cells ([2]; 8 h, 3.125 uM): 0.6802 and 0.6819 and 0.7483
- Cell viability by MTT, normalized to untreated control cells ([2]; 8 h, 6.25 uM): 0.6627 and 0.6548 and 0.6836 and 0.7177
- Cell viability by MTT, normalized to untreated control cells ([2]; 8 h, 25 uM): 0.6304 and 0.5666 and 0.5754 and 0.5928
- Cell viability by MTT, normalized to untreated control cells ([2]; 8 h, 50 uM): 0.4531 and 0.3981 and 0.3597 and 0.4348
- Cell viability by MTT, normalized to untreated control cells ([2]; 8 h, 100 uM): 0.3842 and 0.3676 and 0.4051 and 0.4296
- Cell viability by MTT, normalized to untreated control cells ([2]; 8 h, 200 uM): 0.3562 and 0.31 and 0.303 and 0.3222

Reference: PMC8445934, “Transformation of tenofovir into stable ProTide nanocrystals with long-acting pharmacokinetic profiles” (Nature Communications, 2021)
